This is an account of results in PubChem BioAssay AID624027 (Broad Institute, 2012).

Structures are written as SMILES. Calls of active or inactive are those of the source.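 The calls were made as follows: active = decreasing luminescence curve with half-maximal concentration at most twice the top tested dose, in every replicate run; inconclusive = replicate test runs disagree in their calls; inactive = every replicate run inactive, including responses in the opposite direction.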

Sequence of Glycogen synthase kinase-3 beta (Homo sapiens) (P49841 whole entry, looked up): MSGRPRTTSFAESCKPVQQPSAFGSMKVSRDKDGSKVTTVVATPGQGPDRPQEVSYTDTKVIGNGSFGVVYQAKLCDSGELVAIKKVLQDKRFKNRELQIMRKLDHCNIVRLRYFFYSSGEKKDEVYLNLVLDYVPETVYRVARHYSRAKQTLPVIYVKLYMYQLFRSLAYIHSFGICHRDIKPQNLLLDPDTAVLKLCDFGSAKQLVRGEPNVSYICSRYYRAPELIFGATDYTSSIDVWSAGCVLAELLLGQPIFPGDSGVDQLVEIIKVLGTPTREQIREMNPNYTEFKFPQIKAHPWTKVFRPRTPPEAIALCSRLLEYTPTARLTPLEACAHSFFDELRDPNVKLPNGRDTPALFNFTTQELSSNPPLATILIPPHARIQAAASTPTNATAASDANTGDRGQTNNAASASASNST

The first test has as its target Glycogen synthase kinase-3 beta (Homo sapiens) (UniProt P49841). In words: GSK3beta inhibitors at high ATP, SAR follow-up, mechanism study for GSK3beta inhibitor project, biochemical, varied ATP levels, ADP-Glo luminescence, dry powder samples (AID 624027). The conditions noted are these: GST-GSK3beta kinase, 100 uM ATP.
Consider `CC1(C)CC(=O)C2=C(C1)Nc1n[nH]c(C(F)(F)F)c1C2c1ccccc1` (centres undefined), for which the AC50 was 0.103 µM.

`Cc1[nH]nc2c1C(c1ccc(C#N)cc1)C1=C(CC(C)(C)CC1=O)N2` (centres undefined): the half-maximal activity concentration (AC50) was 39.8 µM. Still for that read-out and setting: for `Cc1[nH]nc2c1[C@@H](c1ccccc1C(F)(F)F)C1=C(CC(C)(C)CC1=O)N2` the value was 0.231 µM. Still for that read-out and setting: the same measure for `Cc1[nH]nc2c1C(c1cccc3nonc13)C1=C(CC(C)(C)CC1=O)N2` (centres undefined): 0.231 µM.

As to `CC1(C)CC(=O)/C(=C\c2ccccc2C(F)(F)F)C(=Nc2cc(C(F)(F)F)[nH]n2)C1`, the half-maximal activity concentration (AC50) was 25.2 µM.

With `CC1(C)CC(=O)C2=C(C1)Nc1n[nH]c(C(F)(F)F)c1C2c1cc(F)ccc1OC(F)(F)F` (centres undefined), the half-maximal activity concentration (AC50) is 2.34 µM. In the case of `COc1ccccc1[C@@H]1C2=C(CC(C)(C)CC2=O)Nc2n[nH]c(C(F)(F)F)c21`, the concentration at half-maximal activity (AC50) is 0.143 µM. As for `CC1(C)CC(=O)C2=C(C1)Nc1n[nH]c(C(F)(F)F)c1C2c1ccccc1F` (centres undefined), the AC50 is 0.932 µM. For the molecule `Cc1[nH]nc2c1[C@H](c1ccccc1C(F)(F)F)C1=C(CC(C)(C)CC1=O)N2`, the half-maximal activity concentration (AC50) is 31.9 µM. The same measure, in the same setting: the same measure for `CC1(C)CC(=O)/C(=C\c2cccc(F)c2C(F)(F)F)C(=Nc2cc(C(F)(F)F)[nH]n2)C1`: 13.2 µM; for `CC1(C)CC(=O)C2=C(C1)Nc1n[nH]c(C(F)(F)F)c1C2(C)c1ccccc1` (centres undefined): 0.041 µM. Same read-out and setting: the same measure for `CC1(C)CC(=O)C2=C(C1)Nc1n[nH]c(C(F)(F)F)c1C2c1cc(F)ccc1C(F)(F)F` (centres undefined): 0.209 µM.

Still in this test, the particulars now being: GST-GSK3beta kinase, 100 uM ATP, at 46 µM (top of the series).
For the molecule `CN(C)Cc1cn(-c2ccccc2)nc1-c1ccccc1`, the “activity change, negative = inhibition” value was “inactive”. Same read-out and setting: for `CNC(=O)c1cn(-c2ccccc2)nc1-c1ccc(OC)cc1` the value was “inactive”.

By AC50 is commonly meant the concentration at which the activity in the assay is half-maximal.
